Patent US11279733B2, “Peptide antibiotics” (priority 2017, dated 2022)
≈ marks a conversion by molar mass, not a printed value. Positions of bridges follow the written chain, without caps; N, C: chain ends. Non-standard residues stand in square brackets, D forms with d. Residues, ends and D or L forms follow the SMILES beside them. *: point of attachment. Decanoyl(3R-OH) = CCCCCCC[C@@H](O)CC(=O)*; 2Nal = N[C@@H](Cc1ccc2ccccc2c1)C(=O)O; dIgl = N[C@@H](C(=O)O)C1Cc2ccccc2C1; d(hPhe) = N[C@H](CCc1ccccc1)C(=O)O; dDab = NCC[C@@H](N)C(=O)O; Dab = NCC[C@H](N)C(=O)O

Key:
A. baumannii ATCC 19606 = details: ATCC 19606
Procedure, shortened: (§1)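 Mid-log cultures grown in Mueller Hinton broth at 37° C were tested by 2-fold broth microdilution at 5×10^5 CFU/mL final. Compounds were dissolved in water and tested over a final range of 32 to 0.015 μg/mL.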

A. baumannii GN_093 PmxR = details: GN 093 PmxR
Procedure, shortened: as §1

E. coli ATCC 25922 = details: ATCC 25922
Procedure, shortened: as §1

K. pneumoniae ATCC 13883 = details: ATCC 13883
Procedure, shortened: as §1

[1] = tested on: K. pneumoniae ATCC 700603, MDR; details: ATCC 700603
Procedure, shortened: as §1

[2] = tested on: K. pneumoniae ATCC BAA-2146, NDM-1 pos; details: ATCC BAA-2146
Procedure, shortened: as §1

[3] = tested on: K. pneumoniae GN_102 PmxR; details: GN 102 PmxR
Procedure, shortened: as §1

[4] = tested on: K. pneumoniae GN_106, PmxR; details: GN 106, PmxR
Procedure, shortened: as §1

P. aeruginosa ATCC 27853 = details: ATCC 27853
Procedure, shortened: as §1

[5] = tested on: P. aeruginosa GN_043, PmxR; details: polymyxin-resistant
Procedure, shortened: as §1

[6] = tested on: P. aeruginosa GN_105, PmxR; details: GN 105, PmxR
Procedure, shortened: as §1

[7] = tested on: S. aureus ATCC 25923, MSSA; details: ATCC 25923
Procedure, shortened: as §1

in vitro = details: human
Procedure, shortened: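 4000 cells/well, 24 h attach (37 °C, 5% CO2); compound 24 h; 5 μM resazurin 2 h, 37 °C; fluorescence ex/em 560/590. CC50 by curve fit.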

Compound	MIC A. baumannii ATCC 19606 (A. baumannii ATCC 19606) [µg/mL]	MIC A. baumannii GN_093 PmxR (A. baumannii GN_093 PmxR) [µg/mL]	MIC E. coli ATCC 25922 (E. coli ATCC 25922) [µg/mL]	MIC K. pneumoniae ATCC 13883 (K. pneumoniae ATCC 13883) [µg/mL]	MIC K. pneumoniae ATCC 700603, MDR [1] [µg/mL]	MIC K. pneumoniae ATCC BAA-2146, NDM-1 pos [2] [µg/mL]	MIC K. pneumoniae GN_102 PmxR [3] [µg/mL]	MIC K. pneumoniae GN_106, PmxR [4] [µg/mL]	MIC P. aeruginosa ATCC 27853 (P. aeruginosa ATCC 27853) [µg/mL]	MIC P. aeruginosa GN_043, PmxR [5] [µg/mL]	MIC P. aeruginosa GN_105, PmxR [6] [µg/mL]	MIC S. aureus ATCC 25923, MSSA [7] [µg/mL]	CC50 at 24 h (in vitro) [µM]
CCCCCCC[C@@H](O)CC(=O)N[C@H](CCN)C(=O)N[C@H]1CCNC(=O)[C@H](Cc2c[nH]c3ccccc23)NC(=O)[C@H](CCN)NC(=O)[C@H](CCN)NC(=O)[C@H](CC(C)C)NC(=O)[C@@H](Cc2c[nH]c3ccccc23)NC(=O)[C@H](CCN)NC1=O [compound 8127, 3(R)OH-nC9CO-D-Dab-cyc[L-Dab-L-Dab-L-Dab-D-Trp-L-Leu-L-Dab-L-Dab-L-Trp]] ({Decanoyl(3R-OH)}-[dDab][Dab][Dab][dW]L[Dab][Dab]W; lactam 2-C)	16 (≈ 13.8 µM)	32 (≈ 27.7 µM)	2 (≈ 1.73 µM)	16 (≈ 13.8 µM)	4 (≈ 3.46 µM)	4 (≈ 3.46 µM)	16 (≈ 13.8 µM)	4 (≈ 3.46 µM)	2 (≈ 1.73 µM)	2 (≈ 1.73 µM)	2 (≈ 1.73 µM)	4 (≈ 3.46 µM)	63
CCCCCCC[C@@H](O)CC(=O)N[C@H](CCN)C(=O)N[C@H]1CCNC(=O)[C@H](Cc2c[nH]c3ccccc23)NC(=O)[C@H](CCN)NC(=O)[C@H](CCN)NC(=O)[C@H](CC(C)C)NC(=O)[C@@H](CCc2ccccc2)NC(=O)[C@H](CCN)NC1=O [compound 8129, 3(R)OH-nC9CO-D-Dab-cyc[L-Dab-L-Dab-L-Dab-D-hPhe-L-Leu-L-Dab-L-Dab-L-Trp]] ({Decanoyl(3R-OH)}-[dDab][Dab][Dab][d(hPhe)]L[Dab][Dab]W; lactam 2-C)	4 (≈ 3.54 µM)	4 (≈ 3.54 µM)	2 (≈ 1.77 µM)	4 (≈ 3.54 µM)	4 (≈ 3.54 µM)	4 (≈ 3.54 µM)	4 (≈ 3.54 µM)	4 (≈ 3.54 µM)	2 (≈ 1.77 µM)	4 (≈ 3.54 µM)	2 (≈ 1.77 µM)	2 (≈ 1.77 µM)	37
CCCCCCC[C@@H](O)CC(=O)N[C@H](CCN)C(=O)N[C@H]1CCNC(=O)[C@H](Cc2c[nH]c3ccccc23)NC(=O)[C@H](CCN)NC(=O)[C@H](CCN)NC(=O)[C@H](CC(C)C)NC(=O)[C@@H](C2Cc3ccccc3C2)NC(=O)[C@H](CCN)NC1=O [compound 8826, nC10-3(R)OH-D-Dab-cyc[L-Dab-L-Dab-D-indanylgyl-L-Leu-L-Dab-L-Dab-L-Trp]] ({Decanoyl(3R-OH)}-[dDab][Dab][Dab][dIgl]L[Dab][Dab]W; lactam 2-C)	8 (≈ 7 µM)	8 (≈ 7 µM)	8 (≈ 7 µM)	8 (≈ 7 µM)	8 (≈ 7 µM)	4 (≈ 3.5 µM)	8 (≈ 7 µM)	8 (≈ 7 µM)	4 (≈ 3.5 µM)	4 (≈ 3.5 µM)	4 (≈ 3.5 µM)	4 (≈ 3.5 µM)	38
CCCCCCC[C@@H](O)CC(=O)N[C@H](CCN)C(=O)N[C@H]1CCNC(=O)[C@H](Cc2c[nH]c3ccccc23)NC(=O)[C@H](CCN)NC(=O)[C@H](CCN)NC(=O)[C@H](Cc2ccc3ccccc3c2)NC(=O)[C@@H](Cc2ccccc2)NC(=O)[C@H](CCN)NC1=O [compound 8832, nC10-3(R)OH-D-Dab-cyc[L-Dab-L-Dab-D-Phe-L-2-NaphthylAla-L-Dab-L-Dab-L-Trp]] ({Decanoyl(3R-OH)}-[dDab][Dab][Dab][dF][2Nal][Dab][Dab]W; lactam 2-C)	8 (≈ 6.66 µM)	16 (≈ 13.3 µM)	8 (≈ 6.66 µM)	16 (≈ 13.3 µM)	8 (≈ 6.66 µM)	8 (≈ 6.66 µM)	16 (≈ 13.3 µM)	8 (≈ 6.66 µM)	4 (≈ 3.33 µM)	4 (≈ 3.33 µM)	8 (≈ 6.66 µM)	4 (≈ 3.33 µM)	26
